This is an account of results in US20220125051A1, “PRE-HARVEST DESICCATION METHOD” (SYNGENTA CROP PROTECTION AG, priority 2019, published 2022).

Holding throughout (assay): Post-emergence efficacy, Method A
Holding throughout (format): in vivo

One assay relates to Lolium perenne (LOLPE). The following applies: Application Rate 500 g/Ha, evaluated after 13 days, Method A; for pest or weed control at 500 g/ha: Lolium perenne, post-emergence, 312 h, read-out: Control of weed species after post-emergence application, LOLPE (100=total damage to plant; 0=no damage to plant). In a few lines: (§1)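 Plants grown 14 days in glasshouse (24/16 °C, 14 h light, 65% humidity) were sprayed with compound formulated in IF50. The spray was diluted in 0.25% or 1% Empicol ESC70 plus 1% ammonium sulphate. Damage was scored 13 days later on a 0-100 scale, where 100 is total damage.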

For assay [1], the system named is Amaranthus palmeri (AMAPA). The following applies: Application Rate 500 g/Ha, evaluated after 13 days, Method A; for pest or weed control at 500 g/ha: Amaranthus palmeri, post-emergence, 312 h, read-out: Control of weed species after post-emergence application, AMAPA (100=total damage to plant; 0=no damage to plant). An outline of the steps:
as §1

The test system of assay [2] is Euphorbia heterophylla (EPHHL). The settings on record: Application Rate 500 g/Ha, evaluated after 13 days, Method A; for pest or weed control at 500 g/ha: Euphorbia heterophylla, post-emergence, 312 h, read-out: Control of weed species after post-emergence application, EPHHL (100=total damage to plant; 0=no damage to plant). An outline of the steps: as §1
The subject of the next assay is Setaria faberi (SETFA). The settings on record: Application Rate 500 g/Ha, evaluated after 13 days, Method A; for pest or weed control at 500 g/ha: Setaria faberi, post-emergence, 312 h, read-out: Control of weed species after post-emergence application, SETFA (100=total damage to plant; 0=no damage to plant). An outline of the steps:
as §1

The test system of assay [3] is Echinochloa crus-galli (ECHCG). The following applies: Application Rate 500 g/Ha, evaluated after 13 days, Method A; for pest or weed control at 500 g/ha: Echinochloa crus-galli, post-emergence, 312 h, read-out: Control of weed species after post-emergence application, ECHCG (100=total damage to plant; 0=no damage to plant). In a few lines: as §1
Assay [4] has as its system Ipomoea hederacea (IPOHE). The settings on record: Application Rate 500 g/Ha, evaluated after 13 days, Method A; for pest or weed control at 500 g/ha: Ipomoea hederacea, post-emergence, 312 h, read-out: Control of weed species after post-emergence application, IPOHE (100=total damage to plant; 0=no damage to plant). In a few lines:
as §1

Assay [5] deals with Digitaria sanguinalis (DIGSA). The settings on record: Application Rate 500 g/Ha, evaluated after 13 days, Method A; for pest or weed control at 500 g/ha: Digitaria sanguinalis, post-emergence, 312 h, read-out: Control of weed species after post-emergence application, DIGSA (100=total damage to plant; 0=no damage to plant). An outline of the steps:
as §1

Another assay deals with Eleusine indica (ELEIN). The following applies: Application Rate 500 g/Ha, evaluated after 13 days, Method A; for pest or weed control at 500 g/ha: Eleusine indica, post-emergence, 312 h, read-out: Control of weed species after post-emergence application, ELEIN (100=total damage to plant; 0=no damage to plant). In a few lines:
as §1

In assay [6] the test system is Chenopodium album (CHEAL). The settings on record: Application Rate 500 g/Ha, evaluated after 13 days, Method A; for pest or weed control at 500 g/ha: Chenopodium album, post-emergence, 312 h, read-out: Control of weed species after post-emergence application, CHEAL (100=total damage to plant; 0=no damage to plant). An outline of the steps:
as §1

As for `CC(C)(C[n+]1ccc(-c2ccncn2)cn1)C(=O)O` [Compound A167], the pest or weed control at 500 g/ha in the assay with Lolium perenne (LOLPE) came to 40%; in assay [1], 20%; in assay [2] it was 90%; in the assay with Setaria faberi (SETFA), 40%; in [3] it was 60%; in assay [4] it was 100%. In addition, the pest or weed control at 500 g/ha in assay [5] stood at 50%; in the assay with Eleusine indica (ELEIN), 80%; in [6], 70%.
With `O=S(=O)([O-])CCC[n+]1ccc(-c2ccc(-c3ccc(Cl)nn3)nn2)cn1` [Compound A168], the pest or weed control at 500 g/ha in the assay with Lolium perenne (LOLPE) was found to be 10%; in assay [1], 0%; in [2] it was 30%; with Setaria faberi (SETFA) it was 10%; in [3], 20%; in assay [4], 20%. Besides, the pest or weed control at 500 g/ha in assay [5] stood at 10%; in the assay on Eleusine indica (ELEIN) it was 20%; in assay [6], 40%.
For the compound `O=S(=O)([O-])CC[n+]1ccc(-c2ncc(CO)cn2)cn1` [Compound A170], the pest or weed control at 500 g/ha in the assay on Lolium perenne (LOLPE) amounted to 50%; in [1], 100%; in assay [2], 70%; in the assay on Setaria faberi (SETFA) it was 80%; in assay [3], 80%; in assay [4] it was 40%. The pest or weed control at 500 g/ha in assay [5] turned out to be 40%; with Eleusine indica (ELEIN), 40%; in assay [6] it was 100%.
As to `CC(CC(=O)O)[n+]1ccc(-c2ccncn2)cn1` (stereo not drawn) [Compound A172], the pest or weed control at 500 g/ha in the assay on Lolium perenne (LOLPE) turned out to be 20%; in assay [1], 30%; in [2], 50%; with Setaria faberi (SETFA), 50%; in [3] it was 50%; in assay [4], 40%. In addition, the values for the pest or weed control at 500 g/ha (in [5]; in the assay with Eleusine indica (ELEIN); in assay [6]) were 80%, 70% and 60%, respectively.
In the case of `O=c1[nH]c(-c2cc[n+](CCCS(=O)(=O)[O-])nc2)ncc1Cl` [Compound A173], the pest or weed control at 500 g/ha with Lolium perenne (LOLPE) came out at 10%; in assay [1], 30%; in [2], 40%; in the assay with Setaria faberi (SETFA) it was 30%; in assay [3], 30%; in assay [4], 20%. Also, the values for the pest or weed control at 500 g/ha (in assay [5]; with Eleusine indica (ELEIN); in assay [6]) were 20%, 10% and 50%, respectively.
On to `O=S(=O)([O-])CC[n+]1ccc(-c2ccc(C(F)(F)F)cn2)cn1` [Compound A174], for which the pest or weed control at 500 g/ha in the assay with Lolium perenne (LOLPE) was determined as 60%; in [1], 100%; in [2] it was 60%; with Setaria faberi (SETFA), 60%; in [3], 50%; in [4] it was 50%. Further, the pest or weed control at 500 g/ha in assay [5] came out at 50%; in the assay on Eleusine indica (ELEIN), 60%; in assay [6], 40%.
For `O=S(=O)([O-])CC[n+]1ccc(-c2ncc(C(F)(F)F)cc2Cl)cn1` [Compound A175], the pest or weed control at 500 g/ha turned out to be 10% with Lolium perenne (LOLPE); 30% in assay [1]; 30% in assay [2]; 30% in the assay with Setaria faberi (SETFA); 30% in assay [3]; 20% in assay [4]. Moreover, the pest or weed control at 500 g/ha in assay [5] was determined as 40%; in the assay with Eleusine indica (ELEIN), 40%; in assay [6] it was 60%.
For the compound `Cc1cnc(-c2cc[n+](CCC(=O)O)nc2)c(C)c1` [Compound A177], the pest or weed control at 500 g/ha was found to be 0% in the assay on Lolium perenne (LOLPE); 60% in assay [1]; 30% in [2]; 0% in the assay with Setaria faberi (SETFA); 0% in assay [3]; 20% in [4]. The pest or weed control at 500 g/ha worked out at 10% in assay [5], 10% in the assay with Eleusine indica (ELEIN) and 50% in assay [6].
With `Cc1cnc(-c2cc[n+](CCC(=O)O)nc2)c(F)c1` [Compound A178], the pest or weed control at 500 g/ha in the assay with Lolium perenne (LOLPE) turned out to be 0%; in assay [1] it was 90%; in [2] it was 40%; in the assay on Setaria faberi (SETFA), 10%; in assay [3] it was 10%; in [4], 20%. Further, the pest or weed control at 500 g/ha in assay [5] was found to be 10%; in the assay with Eleusine indica (ELEIN), 0%; in assay [6], 70%.
On to `O=S(=O)(O)CC[n+]1ccc(-c2cccnc2)cn1` [Compound A179], for which the “Control of weed species after post-emergence application, LOLPE (100=total damage to plant; 0=no damage to plant)” value in the assay on Lolium perenne (LOLPE) worked out at 10. The “Control of weed species after post-emergence application, AMAPA (100=total damage to plant; 0=no damage to plant)” value in assay [1] worked out at 30. Also, in [2], the “Control of weed species after post-emergence application, EPHHL (100=total damage to plant; 0=no damage to plant)” value worked out at 60. Moreover, in the assay on Setaria faberi (SETFA), the “Control of weed species after post-emergence application, SETFA (100=total damage to plant; 0=no damage to plant)” value amounted to 60. Moreover, the “Control of weed species after post-emergence application, ECHCG (100=total damage to plant; 0=no damage to plant)” value in assay [3] came out at 40. Also, the “Control of weed species after post-emergence application, IPOHE (100=total damage to plant; 0=no damage to plant)” value in [4] is 20. The “Control of weed species after post-emergence application, DIGSA (100=total damage to plant; 0=no damage to plant)” value in [5] came out at 50. In the assay with Eleusine indica (ELEIN), the “Control of weed species after post-emergence application, ELEIN (100=total damage to plant; 0=no damage to plant)” value is on record as 50. Besides, the “Control of weed species after post-emergence application, CHEAL (100=total damage to plant; 0=no damage to plant)” value in assay [6] turned out to be 30.
With `O=C(O)C(O)C[n+]1ccc(-c2ncccn2)cn1` (stereo not drawn) [Compound A180], the pest or weed control at 500 g/ha was 30% in the assay with Lolium perenne (LOLPE); 100% in assay [1]; 80% in [2]; 70% with Setaria faberi (SETFA); 70% in assay [3]; 20% in assay [4]. For the same compound, the pest or weed control at 500 g/ha in assay [5] amounted to 60%; in the assay with Eleusine indica (ELEIN), 90%; in assay [6], 90%.
On to `N#Cc1ccnc(-c2cc[n+](CCO)nc2)n1` [Compound A186], for which the pest or weed control at 500 g/ha in the assay on Lolium perenne (LOLPE) is 10%; in assay [1] it was 70%; in assay [2], 30%; in the assay with Setaria faberi (SETFA), 60%; in assay [3] it was 30%; in assay [4] it was 30%. The pest or weed control at 500 g/ha is 60% in [5], 50% in the assay on Eleusine indica (ELEIN) and 70% in [6].
For the compound `Nc1cc(-c2cc[n+](CCC(=O)O)nc2)nc(N)n1` [Compound A188], the pest or weed control at 500 g/ha with Lolium perenne (LOLPE) was 20%; in [1], 90%; in [2], 30%; in the assay on Setaria faberi (SETFA) it was 30%; in assay [3], 50%; in assay [4] it was 20%. The pest or weed control at 500 g/ha in assay [5] stood at 40%; in the assay with Eleusine indica (ELEIN) it was 20%; in [6] it was 50%.
In the case of `CC(C)(CC(=O)O)[n+]1ccc(-c2ccncn2)cn1` [Compound A189], the pest or weed control at 500 g/ha with Lolium perenne (LOLPE) is 30%; in [1], 100%; in [2], 90%; with Setaria faberi (SETFA) it was 70%; in [3], 80%; in assay [4], 70%. Further, the pest or weed control at 500 g/ha in [5] is 50%; in the assay with Eleusine indica (ELEIN) it was 90%; in assay [6], 100%.
